From US6274715A, “Tricyclic erythromycin derivatives” (priority 1997, dated 2001)
Values after ≈ are worked out from the molar mass of the structure shown.

What was measured:
Type in all cases: cell-based
[1] = tested on: STAPHYLOCOCCUS AUREUS ATCC 6538P; test: In vitro antibacterial activity, MIC, BHI agar dilution; conditions: S. aureus ATCC 6538P, 35-37° C., 20 to 24 hours, unit assumed
[2] = tested on: STAPHYLOCOCCUS AUREUS A-5278; test: as above; conditions: S. aureus A-5278, unit assumed
[3] = tested on: STAPHYLOCOCCUS AUREUS CMX 642A; test: as above; conditions: S. aureus CMX 642A, unit assumed
[4] = tested on: STAPHYLOCOCCUS AUREUS NCTC10649M; test: as above; conditions: S. aureus NCTC10649M, unit assumed
[5] = tested on: STAPHYLOCOCCUS AUREUS CMX 553; test: as above; conditions: S. aureus CMX 553, unit assumed
[6] = tested on: STAPHYLOCOCCUS AUREUS 1775; test: as above; conditions: S. aureus 1775, unit assumed
[7] = tested on: STAPHYLOCOCCUS EPIDERMIDIS 3519; conditions: S. epidermidis 3519; BHI agar; unit assumed
EN[…] ATCC 8043 = test: In vitro antibacterial activity, MIC, BHI agar dilution; conditions: E. faecium ATCC 8043, unit assumed
In short: (§1)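 Twelve successive aqueous dilutions of compound in Brain Heart Infusion agar were inoculated with 1:100 culture dilutions (1:10 for slow growers such as Micrococcus, Streptococcus) by Steers replicator and incubated at 35-37° C for 20 to 24 hours. MIC was the lowest concentration giving no growth, slight haze or sparse colonies versus drug-free control.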

M[…] ATCC 4698 = test: as above; conditions: M. luteus ATCC 4698, unit assumed
In short: as §1

M[…] ATCC 9341 = test: as above; conditions: M. luteus ATCC 9341, unit assumed
In short: as §1

STR[…] 508 = test: as above; conditions: S. agalactiae CMX 508, unit assumed
In short: as §1

[8] = tested on: STREPTOCOCCUS BOVIS A-5169; test: as above; conditions: S. bovis A-5169, unit assumed
[9] = tested on: STREPTOCOCCUS PYOGENES EES61; test: as above; conditions: S. pyogenes EES61, unit assumed
[10] = tested on: STREPTOCOCCUS PYOGENES 930; test: as above; conditions: S. pyogenes 930, unit assumed
[11] = tested on: STREPTOCOCCUS PYOGENES PIU 2548; test: as above; conditions: S. pyogenes PIU 2548, unit assumed
ESCHERICHIA COLI JUHL = conditions: E. coli JUHL; BHI agar; unit assumed
ESCHERICHIA COLI SS = test: In vitro antibacterial activity, MIC, BHI agar dilution; conditions: E. coli SS, unit assumed
ESCHERICHIA COLI DC-2 = test: as above; conditions: E. coli DC-2, unit assumed
ESCHERICHIA COLI H560 = test: as above; conditions: E. coli H560, unit assumed
ESCHERICHIA COLI KNK 437 = conditions: E. coli KNK 437; BHI agar; unit assumed
[12] = tested on: ENTEROBACTER AEROGENES ATCC 13048; test: In vitro antibacterial activity, MIC, BHI agar dilution; conditions: E. aerogenes ATCC 13048, unit assumed
[13] = tested on: KLEBSIELLA PNEUMONIAE ATCC 8045; test: as above; conditions: K. pneumoniae ATCC 8045, unit assumed
[14] = tested on: PROVIDENCIA STUARTII CMX 640; conditions: P. stuartii CMX 640; BHI agar; unit assumed
[15] = tested on: PSEUDOMONAS AERUGINOSA BMH10; test: In vitro antibacterial activity, MIC, BHI agar dilution; conditions: P. aeruginosa BMH10, unit assumed
[16] = tested on: PSEUDOMONAS AERUGINOSA 5007; test: as above; conditions: P. aeruginosa 5007, unit assumed
[17] = tested on: PSEUDOMONAS AERUGINOSA K799/WT; test: as above; conditions: P. aeruginosa K799/WT, unit assumed
[18] = tested on: PSEUDOMONAS AERUGINOSA K799/61; test: as above; conditions: P. aeruginosa K799/61, unit assumed
PSEUDOMONAS CEPACIA 296I = test: as above; conditions: P. cepacia 296I, unit assumed
[19] = tested on: PSEUDOMONAS AERUGINOSA DPHD-5263; test: as above; conditions: P. aeruginosa DPHD-5263, unit assumed
[20] = tested on: PSEUDOMONAS AERUGINOSA DPHD-2862; test: as above; conditions: P. aeruginosa DPHD-2862, unit assumed
CANDIDA ALBICANS CCH 442 = test: as above; conditions: C. albicans CCH 442, unit assumed
[21] = tested on: MYCOBACTERIUM SMEGMATIS ATCC 114; test: as above; conditions: M. smegmatis ATCC 114, unit assumed
H. Influenza Dill AMP R = test: In vitro antibacterial activity against H. Influenza Dill AMP R, MIC; conditions: separate assay, unit assumed
Method: Representative compounds of the present invention were assayed in vitro for antibacterial activity as follows: Twelve petri dishes containing successive aqueous dilutions of the test compound mixed with 10 mL of sterilized Brain Heart Infusion (BHI) agar (Difco 0418-01-5) were prepared. Each plate was inoculated with 1:100 (or 1:10 for slow-growing strains, such as Micrococcus and Streptococcus) dilutions of up to 32 different microorganisms, using a Steers replicator block. The inoculated plates were incubated at 35-37° C. for 20 to 24 hours. In addition, a control plate, using BHI agar containing no test compound, was prepared and incubated at the beginning and end of each test.
After incubation, each plate was visually inspected. The minimum inhibitory concentration (MIC) was defmed as the lowest concentration of drug yielding no growth, a slight haze, or sparsely isolated colonies on the inoculum spot as compared to the growth control.
In a separate assay representative compounds of the invention were assayed in vitro for antibacterial activity against the H. Influenza Dill AMP R strain, according to the protocol described above.

[22] = tested on: STAPHYLOCOCCUS AUREUS A5177; test: In vitro antibacterial activity, MIC, BHI agar dilution; conditions: S. aureus A5177, unit assumed
[23] = tested on: ACINETOBACTER CALCOACETICUS CMX 669; test: as above; conditions: A. calcoaceticus CMX 669, unit assumed

Structure (SMILES)	MIC [1] [µg/mL]	MIC [2] [µg/mL]	MIC [3] [µg/mL]	MIC [4] [µg/mL]	MIC [5] [µg/mL]	MIC [6] [µg/mL]	MIC [7] [µg/mL]	MIC (EN[…] ATCC 8043) [µg/mL]	MIC (M[…] ATCC 4698) [µg/mL]	MIC (M[…] ATCC 9341) [µg/mL]	MIC (STR[…] 508) [µg/mL]	MIC [8] [µg/mL]	MIC [9] [µg/mL]	MIC [10] [µg/mL]	MIC [11] [µg/mL]	MIC (ESCHERICHIA COLI JUHL) [µg/mL]	MIC (ESCHERICHIA COLI SS) [µg/mL]	MIC (ESCHERICHIA COLI DC-2) [µg/mL]	MIC (ESCHERICHIA COLI H560) [µg/mL]	MIC (ESCHERICHIA COLI KNK 437) [µg/mL]	other results
CCC1OC(=O)C(C)C(=O)C(C)C(OC2OC(C)CC(N(C)C)C2O)C(C)(OC)CC(C)C2=NC(c3ccccc3)C(c3ccccc3)N3C(=O)OC1(C)C3C2C (centres unmarked) [Example 7]	3.1 (≈ 3.92 µM)	100 (≈ 127 µM)	3.1 (≈ 3.92 µM)	3.1 (≈ 3.92 µM)	3.1 (≈ 3.92 µM)	100 (≈ 127 µM)	1.56 (≈ 1.97 µM)	0.39 (≈ 0.494 µM)	1.56 (≈ 1.97 µM)	0.39 (≈ 0.494 µM)	0.2 (≈ 0.253 µM)	0.2 (≈ 0.253 µM)	0.2 (≈ 0.253 µM)	50 (≈ 63.3 µM)	1.56 (≈ 1.97 µM)	> 100	3.1 (≈ 3.92 µM)	> 100	> 100	> 100	MIC [12]: > 100 µg/mL; MIC [13]: > 100 µg/mL; MIC [14]: > 100 µg/mL; MIC [15]: > 100 µg/mL; MIC [16]: > 100 µg/mL; MIC [17]: > 100 µg/mL; MIC [18]: 6.2 µg/mL (≈ 7.85 µM); MIC (PSEUDOMONAS CEPACIA 296I): > 100 µg/mL; MIC [19]: > 100 µg/mL; MIC [20]: > 100 µg/mL; MIC (CANDIDA ALBICANS CCH 442): > 100 µg/mL; MIC [21]: 1.56 µg/mL (≈ 1.97 µM); MIC (H. Influenza Dill AMP R): 64 µg/mL (≈ 81 µM)
CC[C@H]1OC(=O)[C@H](C)C(=O)[C@H](C)[C@@H](O[C@@H]2O[C@H](C)C[C@H](N(C)C)[C@H]2O)[C@](C)(OC)C[C@@H](C)C2=N[C@H](COCc3cccc(Br)c3)CN3C(=O)O[C@@]1(C)[C@H]3[C@H]2C [Example 105]	0.05 (≈ 0.0597 µM)	100 (≈ 119 µM)	0.05 (≈ 0.0597 µM)	0.02 (≈ 0.0239 µM)	0.05 (≈ 0.0597 µM)	100 (≈ 119 µM)	0.05 (≈ 0.0597 µM)	≤ 0.005	0.01 (≈ 0.0119 µM)	≤ 0.005	≤ 0.005	≤ 0.005	≤ 0.005	25 (≈ 29.9 µM)	0.05 (≈ 0.0597 µM)	100 (≈ 119 µM)	0.39 (≈ 0.466 µM)	100 (≈ 119 µM)	50 (≈ 59.7 µM)	> 100	MIC [22]: 0.05 µg/mL (≈ 0.0597 µM); MIC [12]: > 100 µg/mL; MIC [13]: > 100 µg/mL; MIC [14]: > 100 µg/mL; MIC [15]: > 100 µg/mL; MIC [16]: > 100 µg/mL; MIC [17]: > 100 µg/mL; MIC [18]: 1.56 µg/mL (≈ 1.86 µM); MIC (PSEUDOMONAS CEPACIA 296I): 100 µg/mL (≈ 119 µM); MIC [23]: 100 µg/mL (≈ 119 µM); MIC [19]: > 100 µg/mL; MIC [20]: > 100 µg/mL; MIC (CANDIDA ALBICANS CCH 442): 100 µg/mL (≈ 119 µM); MIC [21]: 0.78 µg/mL (≈ 0.932 µM)
CC[C@H]1OC(=O)[C@H](C)C(=O)[C@H](C)[C@@H](O[C@@H]2O[C@H](C)C[C@H](N(C)C)[C@H]2O)[C@](C)(OC)C[C@@H](C)C2=NC3CN(CCc4ccccc4[N+](=O)[O-])CC3N3C(=O)O[C@@]1(C)[C@H]3[C@H]2C (some centres unmarked) [Example 119]	0.39 (≈ 0.471 µM)	> 100	0.39 (≈ 0.471 µM)	0.2 (≈ 0.242 µM)	0.2 (≈ 0.242 µM)	> 100	0.39 (≈ 0.471 µM)	0.1 (≈ 0.121 µM)	0.39 (≈ 0.471 µM)	0.05 (≈ 0.0604 µM)	0.02 (≈ 0.0242 µM)	0.02 (≈ 0.0242 µM)	0.02 (≈ 0.0242 µM)	> 100	0.78 (≈ 0.942 µM)	100 (≈ 121 µM)	0.78 (≈ 0.942 µM)	> 100	> 100	> 100	MIC [22]: 0.39 µg/mL (≈ 0.471 µM); MIC [12]: > 100 µg/mL; MIC [13]: > 100 µg/mL; MIC [14]: > 100 µg/mL; MIC [15]: > 100 µg/mL; MIC [16]: > 100 µg/mL; MIC [17]: > 100 µg/mL; MIC [18]: 0.78 µg/mL (≈ 0.942 µM); MIC (PSEUDOMONAS CEPACIA 296I): > 100 µg/mL; MIC [23]: 100 µg/mL (≈ 121 µM); MIC [19]: > 100 µg/mL; MIC [20]: > 100 µg/mL; MIC (CANDIDA ALBICANS CCH 442): > 100 µg/mL; MIC [21]: 0.78 µg/mL (≈ 0.942 µM)
